Experimental data: patent US20180111893A1, “POLYCATIONIC AMPHIPHILES AND POLYMERS THEREOF AS ANTIMICROBIAL AGENTS AND METHODS USING SAME” (Temple University-Of The Commonwealth System of Higher …, priority 2015, published 2018)

Tests used:
Experiment in all cases: Minimum inhibitory concentration (MIC)
Format in all cases: cell-based
[1] = tested on: Staphylococcus aureus (SA; MSSA SH1000); settings: Table 6
Method: (§1) As used herein, the term “minimum inhibitory concentration (MIC)” refers to the lowest concentration of an antimicrobial agent that will inhibit the visible growth of a microorganism after overnight incubation. MIC values against bacteria, for example, the Gram-positive Staphylococcus aureus and Enterococcus faecalis and the Gram-negative Escherichia coli and Pseudomonas aeruginosa were determined by standard methods. See also P. A. Wayne, Methods for Dilution Antimicrobial Tests for Bacteria that Grow Aerobically; Approved Standard, Ninth Edition, 2012, CLSI Document M07-A9, Vol. 32 No. 2, which is incorporated by reference herein in its entirety.
(§2) Compounds were serially diluted two-fold from a 10% DMSO/aqueous stock solution to yield twelve test concentrations. Overnight S. aureus, E. faecalis, E. coli, P. aeruginosa, CA-MRSA, and HA-MRSA cultures diluted to ca. 10^6 cfu/mL in Mueller-Hinton media and 100 μL were inoculated into each well of a U-bottom 96-well plate (BD Biosciences, BD351177) containing 100 μL of compound solution. Plates were incubated statically at 37° C. for 72 hours upon which time wells were evaluated visually for bacterial growth. The MIC was determined as the lowest concentration of compound resulting in no bacterial growth visible to the naked eye, based on the majority of three independent experiments. Positive and negative DMSO/aqueous solution and media controls were conducted for each trial. See Peng et al., 2011, Chem. Comm. 47:4896-4898.
as §2, with “trial.” for “trial. See Peng et al., 2011, Chem. Comm. 47:4896-4898.”

[2] = tested on: community-acquired methicillin-resistant Staphylococcus aureus CA-MRSA (USA300-0114); settings: for MIC CA-MRSA: Table 6; for difference in MIC of monoQAC versus triscationic analog against CA-MRSA: monocationic n,0,0 vs triscationic n,1,1; for potency against CA-MRSA: dye-based monoQACs
Method: as §1, §2
as §2, with “trial.” for “trial. See Peng et al., 2011, Chem. Comm. 47:4896-4898.”

[3] = tested on: Enterococcus faecalis (OG1RF); settings: Table 6
Method: as §1, §2
as §2, with “trial.” for “trial. See Peng et al., 2011, Chem. Comm. 47:4896-4898.”

[4] = tested on: Escherichia coli (MC4100); settings: Table 6
Method: as §1, §2
as §2, with “trial.” for “trial. See Peng et al., 2011, Chem. Comm. 47:4896-4898.”

[5] = tested on: Pseudomonas aeruginosa (PAO1); settings: Table 6
Method: as §1, §2
as §2, with “trial.” for “trial. See Peng et al., 2011, Chem. Comm. 47:4896-4898.”

[6] = tested on: hospital-acquired methicillin-resistant Staphylococcus aureus HA-MRSA (ATCC 33591); settings: Table 6
Method: as §1, §2
as §2, with “trial.” for “trial. See Peng et al., 2011, Chem. Comm. 47:4896-4898.”

| Compound | MIC SA [1] [µM] | MIC CA-MRSA [2] [µM] | MIC EF [3] [µM] | MIC EC [4] [µM] | MIC PA [5] [µM] | MIC HA-MRSA [6] [µM] | difference in MIC of monoQAC versus triscationic analog against CA-MRSA [2] | increase in MIC against CA-MRSA compared to SA ([2]; dye-based QACs, bacteria with vs without efflux pumps) [fold] | potency against CA-MRSA ([2]; in words) | MIC against CA-MRSA ([2]; dye-based QACs) [µM] | difference in MIC/activity between SA and CA-MRSA ([2]; dye-based QACs, in words) |
| --- | --- | --- | --- | --- | --- | --- | --- | --- | --- | --- | --- |
| CCCCCCCCCCCCCCCC[N+](C)(C)CCCN(CCC[N+](C)(C)CCCCCCCCCCCCCCCC)CCC[N+](C)(C)CCCCCCCCCCCCCCCC.[Br-].[Br-].[Br-] [sT-16,16,16,0] | 8 | 4 | 16 | 16 | 32 | 16 | – | – | – | – | – |
| C=CC[N+](CCC[N+](C)(C)CCCCCCCCCCCCCCCCCC)(CCC[N+](C)(C)CCCCCCCCCCCCCCCCCC)CCC[N+](C)(C)CCCCCCCCCCCCCCCCCC [sT-18,18,18,3A] | 2 | 2 | 32 | 32 | 125 | 16 | – | – | – | – | – |
| C=CC[N+](CCC[N+](C)(C)CCCCCCCCCCCCCC)(CCC[N+](C)(C)CCCCCCCCCCCCCC)CCC[N+](C)(C)CCCCCCCCCCCCCC [sT-14,14,14,3A] | 2 | 2 | 2 | 4 | 32 | 2 | – | – | – | – | – |
| CCCCCCCCCCCCCC[N+](C)(C)CCCN(CCC[N+](C)(C)CCCCCCCCCCCCCC)CCC[N+](C)(C)CCCCCCCCCCCCCC [sT-14,14,14,0] | 1 | 0.5 | 2 | 4 | 16 | 2 | – | – | – | – | – |
| CCCCCCCC[N+](C)(C)CCC[N+](C)(CCC[N+](C)(C)CCCCCCCC)CCC[N+](C)(C)CCCCCCCC [sT-8,8,8,1] | 0.5 | 1 | 16 | 4 | 250 | 16 | – | – | – | – | – |
| CCCCCCCCCCC[N+](C)(C)CCCN(CCC[N+](C)(C)CCCCCCCCCCC)CCC[N+](C)(C)CCCCCCCCCCC [sT-11,11,11,0] | 0.5 | 0.5 | 0.5 | 0.5 | 1 | 0.5 | – | – | – | – | – |
| CCCCCCCCCCCCCC[N+](C)(C)CCC[N+](C)(CCC[N+](C)(C)CCCCCCCCCCCCCC)CCC[N+](C)(C)CCCCCCCCCCCCCC [sT-14,14,14,1] | 4 | 2 | 2 | 4 | 32 | 2 | – | – | – | – | – |
| C=CC[N+](CCC[N+](C)(C)CCCCCCCCCC)(CCC[N+](C)(C)CCCCCCCCCC)CCC[N+](C)(C)CCCCCCCCCC [sT-10,10,10,3A] | 0.5 | 0.25 | 0.5 | 0.5 | 1 | 0.5 | – | – | – | – | – |
| CCCCCCCCCCCCCCCCCC[N+](C)(C)c1ccc(C(c2ccc(N(C)C)cc2)c2ccc(N(C)C)cc2)cc1 [LCV-18,0,0] | – | – | – | – | – | – | same differential | – | – | – | – |
| CCCCCCCCCCCCCCCCCC[N+](C)(C)CCCN(CCC[N+](C)(C)CCCCCCCCCCCCCCCCCC)CCC[N+](C)(C)CCCCCCCCCCCCCCCCCC [sT-18,18,18,0] | 8 | 4 | 16 | 32 | 63 | 32 | – | – | – | – | – |
| CCCCCCCCCCC[N+](C)(C)CCC[N+](C)(CCC[N+](C)(C)CCCCCCCCCCC)CCC[N+](C)(C)CCCCCCCCCCC.[Br-].[Br-].[Br-].[I-] [sT-11,11,11,1] | 0.5 | ≤0.25 | 0.25 | 0.25 | 1 | 0.5 | – | – | – | – | – |
| CCCCCCCCCCCCC[N+](C)(C)CCC[N+](C)(CCC[N+](C)(C)CCCCCCCCCCCCC)CCC[N+](C)(C)CCCCCCCCCCCCC [sT-13,13,13,1] | 2 | 0.5 | 1 | 1 | 4 | 1 | – | – | – | – | – |
| C=CC[N+](CCC[N+](C)(C)CCCCCCCCCCC)(CCC[N+](C)(C)CCCCCCCCCCC)CCC[N+](C)(C)CCCCCCCCCCC [sT-11,11,11,3A] | 0.5 | 0.5 | 0.5 | 0.5 | 1 | 1 | – | – | – | – | – |
| CCCCCCCCCC[N+](C)(C)c1ccc(C(c2ccc([N+](C)(C)C)cc2)c2ccc([N+](C)(C)C)cc2)cc1 [LCV-10,1,1] | – | – | – | – | – | – | – | 32 | – | – | – |
| CCCCCCCCCC[N+](C)(C)CCCN(CCC[N+](C)(C)CCCCCCCCCC)CCC[N+](C)(C)CCCCCCCCCC [sT-10,10,10,0] | 0.5 | 0.5 | 0.5 | 1 | 2 | 0.5 | – | – | – | – | – |
| C=CC[N+](CCC[N+](C)(C)CCCCCCCCCCCC)(CCC[N+](C)(C)CCCCCCCCCCCC)CCC[N+](C)(C)CCCCCCCCCCCC [sT-12,12,12,3A] | 1 | ≤0.25 | 0.5 | 0.5 | 2 | 0.5 | – | – | – | – | – |
| CCCCCCCCCCC[N+](C)(C)c1ccc(C(c2ccccc2)c2ccc(N(C)C)cc2)cc1 (centres unmarked) [LMG-11,0] | – | – | – | – | – | – | – | – | quite potent | – | – |
| CCCCCCCC[N+](C)(C)CCCN(CCC[N+](C)(C)CCCCCCCC)CCC[N+](C)(C)CCCCCCCC [sT-8,8,8,0] | 4 | 2 | 32 | 32 | 125 | 32 | – | – | – | – | – |
| C=CC[N+](CCC[N+](C)(C)CCCCCCCCCCCCC)(CCC[N+](C)(C)CCCCCCCCCCCCC)CCC[N+](C)(C)CCCCCCCCCCCCC [sT-13,13,13,3A] | 2 | 1 | 1 | 1 | 4 | 1 | – | – | – | – | – |
| CCCCCCCCCCC[N+](C)(C)CCC[N+](CCC[N+](C)(C)CCCCCCCCCCC)(CCC[N+](C)(C)CCCCCCCCCCC)Cc1ccccc1 [sT-11,11,11,Bn] | 0.25 | ≤0.25 | 0.5 | 0.5 | 1 | ≤0.25 | – | – | – | – | – |
| CCCCCCCCCC[N+](C)(C)CCC[N+](C)(CCC[N+](C)(C)CCCCCCCCCC)CCC[N+](C)(C)CCCCCCCCCC [sT-10,10,10,1] | 0.5 | 0.5 | 0.5 | 0.5 | 2 | 0.5 | – | – | – | – | – |
| C=CC[N+](CCC[N+](C)(C)CCCCCCCC)(CCC[N+](C)(C)CCCCCCCC)CCC[N+](C)(C)CCCCCCCC [sT-8,8,8,3A] | 1 | 1 | 16 | 4 | 125 | 8 | – | – | – | – | – |
| CCCCCCCCCCCCCCCC[N+](CC)(CC)c1ccc(N(c2ccc(N(CC)CC)cc2)c2ccc(N(CC)CC)cc2)cc1 [TET-16,0,0] | – | – | – | – | – | – | 500 × | – | – | 250 | – |
| C=CC[N+](CCC[N+](C)(C)CCCCCCCCCCCCCCCC)(CCC[N+](C)(C)CCCCCCCCCCCCCCCC)CCC[N+](C)(C)CCCCCCCCCCCCCCCC [sT-16,16,16,3A] | 4 | 4 | 8 | 16 | 63 | 16 | – | – | – | – | – |
| CCCCCCCCCCCC[N+](C)(C)CCC[N+](CCC[N+](C)(C)CCCCCCCCCCCC)(CCC[N+](C)(C)CCCCCCCCCCCC)Cc1ccccc1 [sT-12,12,12,Bn] | 1 | 0.5 | 0.5 | 0.5 | 2 | 0.5 | – | – | – | – | – |
| CCCCCCCCCCCCCCCC[N+](CC)(CC)c1ccc(N(c2ccc([N+](C)(CC)CC)cc2)c2ccc([N+](C)(CC)CC)cc2)cc1 [TET-16,1,1] | – | – | – | – | – | – | – | – | – | 0.5 | no difference in activity |
| CCCCCCCCCC[N+](C)(C)c1ccc(C(c2ccccc2)c2ccc(N(C)C)cc2)cc1 (centres unmarked) [LMG-10,0] | – | – | – | – | – | – | – | – | quite potent | – | – |
